The target in assay [1] is chimeric receptor comprising the extra-cellular portion of the human EPO receptor to the intra-cellular portion of the human GCSF receptor. The assay is described as follows: Reporter assay (Baf3/EpoR/GCSFR fos/lux luciferase). The assay is classed as cell-based. Particulars: Table 6; Baf3/EpoR/GCSFR fos/lux cells, 4 h. The text has this: This assay is based upon a on a murine pre-B-cell line derived reporter cell, Baf3/EpoR/GCSFR fos/lux. This reporter cell line expresses a chimeric receptor comprising the extra-cellular portion of the human EPO receptor to the intra-cellular portion of the human GCSF receptor. This cell line is further transfected with a fos promoter-driven luciferase reporter gene construct. Activation of this chimeric receptor through addition of erythropoietic agent results in the expression of the luciferase reporter gene, and therefore the production of light upon addition of the luciferase substrate luciferin. Thus, the level of EPO-R activation in such cells may be quantitated via measurement of luciferase activity.
The Baf3/EpoR/GCSFR fos/lux cells are cultured in DMEM/F12 medium (Gibco) supplemented with 10% fetal bovine serum (FBS; Hyclone), 10% WEHI-3 supernatant (the supernatant from a culture of WEHI-3 cells, ATCC #TIB-68), and penicillin/streptomycin. […] Following a 5-minute incubation, light emission is measured on a Packard Topcount Luminometer (Packard Instrument Co., Downers Grove, Ill.). Light counts are plotted relative to test peptide concentration and analysed using Graph Pad software. The concentration of test peptide that results in a half-maximal emission of light is recorded as the EC50 [See Table 2: Reporter EC50]. […]
On the technique in general: A reporter such as luciferase makes a cellular process visible.

For assay [2], the target named is T1, Recombinant Human EPO R/Fc Chimera (Homo sapiens, UniProt P19235).
T1 construct: recombinant EPOr extracellular domain fused to the Fc portion of human IgG1; purchased R&D Systems (Minneapolis, MN, US) 963-ER
T1 sequence (P19235 25-250 limits assumed): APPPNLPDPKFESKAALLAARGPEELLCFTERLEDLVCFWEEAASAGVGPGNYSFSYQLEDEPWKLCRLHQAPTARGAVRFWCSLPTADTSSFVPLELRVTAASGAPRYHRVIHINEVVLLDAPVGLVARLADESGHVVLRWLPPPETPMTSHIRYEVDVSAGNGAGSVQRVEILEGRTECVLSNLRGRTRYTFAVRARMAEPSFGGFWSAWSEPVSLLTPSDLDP
The assay is described as follows: Radioligand competitive binding assay (125I-EPO). Particulars: Table 6; competition with 125I-EPO, 4° C. overnight. As to the method:
An alternative radioligand competition binding assay can also be used to measure IC50 values of peptides in this invention. This assay measures binding of ^125I-EPO to EPOr. The assay is preferably performed according to the following exemplary protocol:
One 50 μg vial of lyophilized recombinant EPOr extracellular domain fused to the Fc portion of human IgG1 is reconstituted in 1 mL of assay buffer. […] Tubes are capped and mixed gently at 4° C. overnight on a LabQuake rotating shaker.
The next day, 50 μL of a 50% slurry of Protein-G Sepharose is added to each tube. Tubes are then incubated for 2 hours at 4° C., mixing gently. The tubes are then centrifuged for 15 min at 4000 RPM (3297×G) to pellet the protein-G sepharose. The supernatants are carefully removed and discarded. After washing 3 times with 1 mL of 4° C. assay buffer, the pellets are counted in a Wallac Wizard gamma counter. Results are then analyzed and the dilution required to reach 50% of the maximum binding value is calculated.
The next day, bound ^125I-EPO is quantitated as described above. The results are analyzed and the IC50 value calculated using Graphpad Prism version 4.0, from GraphPad Software, Inc. (San Diego, Calif.). The assay is repeated two or more times for each peptide tested, for a total of 3 or more replicate IC50 determinations. See Table 6 for IC50 values of Peptide I.

Bridges are numbered along the chain shown (N, C = ends). Where no end group is shown, it is not given here. [ ]: non-standard residue; d: D form. 1Nal = N[C@@H](Cc1cccc2ccccc12)C(=O)O; Sar = CNCC(=O)O

In general, EC50 refers to the concentration that produces a half-maximal response. As usually defined, the IC50 is the concentration that gives 50% inhibition. As for “peptide dimer of monomers (AcG)GLYACHMGPIT(1-nal)VCQPLR(MeG)K (SEQ ID NO: 2) (Ac-GGLYACHMGPIT[1Nal]VCQPLR[Sar]K; disulfide 6-15 (inferred); not fully specified (residue 1); printed as (AcG)GLYACHMGPIT(1-nal)VCQPLR(MeG)K; also: homodimer, dimer linkage not given here) [Peptide I]”, it took 0.195 nM to reach a half-maximal effect in assay [1] (EC50). Also, the half-inhibitory concentration (IC50) in assay [2] stood at 0.111 nM.

For the origin of these results see US8729030B2 (Affymax, Inc., priority 2003, dated 2014).
